This test concerns the target T1, Human orexin receptor type 2 (Homo sapiens, UniProt O43614).
T1 construct: expressed in transfected cells; host or cells: CHO cells (transient expression)
T1 sequence (O43614 1-444): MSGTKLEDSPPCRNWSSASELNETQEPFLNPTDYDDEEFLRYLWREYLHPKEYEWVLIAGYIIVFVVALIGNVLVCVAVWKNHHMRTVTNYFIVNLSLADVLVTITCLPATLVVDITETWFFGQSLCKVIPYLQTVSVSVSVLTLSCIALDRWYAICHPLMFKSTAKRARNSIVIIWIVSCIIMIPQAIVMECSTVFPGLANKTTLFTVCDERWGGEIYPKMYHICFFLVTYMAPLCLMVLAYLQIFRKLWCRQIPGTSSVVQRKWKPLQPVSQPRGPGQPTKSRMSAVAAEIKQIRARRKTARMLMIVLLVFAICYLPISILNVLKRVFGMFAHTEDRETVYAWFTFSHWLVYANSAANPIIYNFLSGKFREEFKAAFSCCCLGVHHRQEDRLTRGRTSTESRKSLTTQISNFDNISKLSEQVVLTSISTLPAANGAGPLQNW
As to the kind of experiment: Test 2: Evaluation of agonist activity for orexin receptor type 2 (aequorin luminescence, intracellular calcium mobilization in CHO cells). The following applies: relative percentage of luminescence for the luminescence (100%) of Orexin A (100 pM); CHO cells transiently expressing human orexin receptor type 2 and apoaequorin; Orexin A Lot. 671009. The test is classed as cell-based. Here is the method:
Test 2: Evaluation of Agonist Activity for Orexin Receptor Type 2
Human orexin receptor type 2 and apoaequorin were transiently expressed in CHO cells, and the agonist activity was evaluated based on intracellular calcium mobilization with ligand stimulation. The CHO cells transiently-expressed human orexin receptor type 2 and apoaequorin were seeded on a 384-well plate by 2,000 cells/well, and then incubated for 16-22 hours. After the plate was returned to room temperature, Coelenterazine hcp (final concentration: 1 μM) was added to the plate, and the plate was allowed to stand at room temperature for 2 hours. And then, Orexin A (PEPTIDE INSTITUTE, INC., Lot. 671009) or each test compound was added to the plate, and the luminescence of the cells was measured with FDSS7000 (Hamamatsu Photonics K.K.), wherein Orexin A and each test compound were dissolved in DMSO (final concentration: 0.1%), and diluted with a buffer (Hanks, 20 mM HEPES, 0.1% BSA). The agonist activity of each test compound for orexin receptor type 2 was calculated as relative percentage of luminescence for the luminescence (100%) of Orexin A (100 pM).
Background: A change in cytosolic calcium serves as a functional read-out for many receptors and channels.

Consider `CC(C)N1CCN([C@H]2CCCC(F)(F)[C@@H]2NC(=O)N2CCC(C)(c3noc(C4CCC4)n3)CC2)CC1` [Example 97, 4-(5-cyclobutyl-1,2,4-oxadiazol-3-yl)-N-{(1R,6S)-2,2-difluoro-6-[4-(propan-2-yl)piperazin-1-yl]cyclohexyl}-4-methylpiperidine-1-carboxamide], for which the “agonist activity (%)” value worked out at 486%.

In the case of `CC(C)N1[C@@H]2CC[C@H]1C[C@H](O[C@H]1CCCC(F)(F)[C@@H]1NC(=O)N1CCC(C)(c3noc([C@@H]4C[C@@H]4F)n3)CC1)C2` [Example 98, N-[(1R,6S)-2,2-difluoro-6-{[(1R,3S,5S)-8-(propan-2-yl)-8-azabicyclo[3.2.1]octan-3-yl]oxy}cyclohexyl]-4-{5-[(1S,2S)-2-fluorocyclopropyl]-1,2,4-oxadiazol-3-yl}-4-methylpiperidine-1-carboxamide], the “agonist activity (%)” value is 271%.

Turning to `CC(C)N(C)[C@H]1CCN([C@H]2CCCC(F)(F)[C@@H]2NC(=O)N2CCC(C)(c3noc(C4CC4)n3)CC2)C1` [Example 99, 4-(5-cyclopropyl-1,2,4-oxadiazol-3-yl)-N-[(1R,6S)-2,2-difluoro-6-{(3S)-3-[methyl(propan-2-yl)amino]pyrrolidin-1-yl}cyclohexyl]-4-methylpiperidine-1-carboxamide], the “agonist activity (%)” value worked out at 499%.

As to `CC(C)N1C[C@H]2CC[C@@H](C1)[C@H]2O[C@H]1CCCC(F)(F)[C@@H]1NC(=O)N1CCC(C)(c2noc([C@@H]3C[C@@H]3F)n2)CC1` [Example 100, N-[(1R,6S)-2,2-difluoro-6-{[(1R,5S,8R)-3-(propan-2-yl)-3-azabicyclo[3.2.1]octan-8-yl]oxy}cyclohexyl]-4-{5-[(1S,2S)-2-fluorocyclopropyl]-1,2,4-oxadiazol-3-yl}-4-methylpiperidine-1-carboxamide], the “agonist activity (%)” value stood at 340%.

`CC(C)OC1CCN([C@H]2CCCC(F)(F)[C@@H]2NC(=O)N2CCC(C)(c3noc([C@@H]4C[C@@H]4F)n3)CC2)CC1` [Example 101, N-[(1R,6S)-2,2-difluoro-6-{4-[(propan-2-yl)oxy]piperidin-1-yl}cyclohexyl]-4-{5-[(1S,2S)-2-fluorocyclopropyl]-1,2,4-oxadiazol-3-yl}-4-methylpiperidine-1-carboxamide]: the “agonist activity (%)” value was 326%.

On to `CC(C)N1CC[C@H](O[C@H]2CCCC(F)(F)[C@@H]2NC(=O)N2CCC(C)(c3noc(C4CCC4)n3)CC2)C1` [Example 102, 4-(5-cyclobutyl-1,2,4-oxadiazol-3-yl)-N-[(1R,6S)-2,2-difluoro-6-{[(3S)-1-(propan-2-yl)pyrrolidin-3-yl]oxy}cyclohexyl]-4-methylpiperidine-1-carboxamide], for which the “agonist activity (%)” value came to 374%.

On to `CCC1(c2noc([C@@H]3C[C@@H]3F)n2)CCN(C(=O)N[C@@H]2[C@@H](O[C@H]3CCN(C(C)C)C3)CCCC2(F)F)CC1` [Example 103, N-[(1R,6S)-2,2-difluoro-6-{[(3S)-1-(propan-2-yl)pyrrolidin-3-yl]oxy}cyclohexyl]-4-ethyl-4-{5-[(1S,2S)-2-fluorocyclopropyl]-1,2,4-oxadiazol-3-yl}piperidine-1-carboxamide], for which the “agonist activity (%)” value came out at 369%.

For `CC(C)N1C[C@H]2CC[C@@H](C1)[C@@H]2O[C@H]1CCCC(F)(F)[C@@H]1NC(=O)N1CCC(C)(c2noc([C@@H]3C[C@@H]3F)n2)CC1` [Example 104, N-[(1R,6S)-2,2-difluoro-6-{[(1R,5S,8S)-3-(propan-2-yl)-3-azabicyclo[3.2.1]octan-8-yl]oxy}cyclohexyl]-4-{5-[(1S,2S)-2-fluorocyclopropyl]-1,2,4-oxadiazol-3-yl}-4-methylpiperidine-1-carboxamide], the “agonist activity (%)” value is 289%.

Regarding `CC(C)N1[C@@H]2CC[C@H]1C[C@@H](O[C@H]1CCCC(F)(F)[C@@H]1NC(=O)N1CCC(C)(c3noc([C@@H]4C[C@@H]4F)n3)CC1)C2` [Example 105, N-[(1R,6S)-2,2-difluoro-6-{[(1R,3R,5S)-8-(propan-2-yl)-8-azabicyclo[3.2.1]octan-3-yl]oxy}cyclohexyl]-4-{5-[(1S,2S)-2-fluorocyclopropyl]-1,2,4-oxadiazol-3-yl}-4-methylpiperidine-1-carboxamide], the “agonist activity (%)” value is 359%.

On to `CC(C)N1C[C@@H]2[C@H](C1)[C@H]2O[C@H]1CCCC(F)(F)[C@@H]1NC(=O)N1CCC(C)(c2noc([C@@H]3C[C@@H]3F)n2)CC1` [Example 106, N-[(1R,6S)-2,2-difluoro-6-{[(1R,5S,6S)-3-(propan-2-yl)-3-azabicyclo[3.1.0]hexan-6-yl]oxy}cyclohexyl]-4-{5-[(1S,2S)-2-fluorocyclopropyl]-1,2,4-oxadiazol-3-yl}-4-methylpiperidine-1-carboxamide], for which the “agonist activity (%)” value is 220%.

For `CC(C)CN1CC[C@H](O[C@H]2CCCC(F)(F)[C@@H]2NC(=O)N2CCC(C)(c3noc([C@@H]4C[C@@H]4F)n3)CC2)C1` [Example 107, N-[(1R,6S)-2,2-difluoro-6-{[(3S)-1-(2-methylpropyl)pyrrolidin-3-yl]oxy}cyclohexyl]-4-{5-[(1S,2S)-2-fluorocyclopropyl]-1,2,4-oxadiazol-3-yl}-4-methylpiperidine-1-carboxamide], the “agonist activity (%)” value came out at 363%.

For the compound `CO[C@@H]1CN(C(C)C)C[C@H]1O[C@H]1CCCC(F)(F)[C@@H]1NC(=O)N1CCC(C)(c2noc([C@@H]3C[C@@H]3F)n2)CC1` [Example 108, N-[(1R,6S)-2,2-difluoro-6-{[(3R,4R)-4-methoxy-1-(propan-2-yl)pyrrolidin-3-yl]oxy}cyclohexyl]-4-{5-[(1S,2S)-2-fluorocyclopropyl]-1,2,4-oxadiazol-3-yl}-4-methylpiperidine-1-carboxamide], the “agonist activity (%)” value turned out to be 292%.

Regarding `CC(C)N1CCC(C)(O[C@H]2CCCC(F)(F)[C@@H]2NC(=O)N2CCC(C)(c3noc([C@@H]4C[C@@H]4F)n3)CC2)CC1` [Example 109, N-[(1R,6S)-2,2-difluoro-6-{[4-methyl-1-(propan-2-yl)piperidin-4-yl]oxy}cyclohexyl]-4-{5-[(1S,2S)-2-fluorocyclopropyl]-1,2,4-oxadiazol-3-yl}-4-methylpiperidine-1-carboxamide], the “agonist activity (%)” value was determined as 359%.

As for `CC(C)N1CCN([C@H]2CCCC(F)(F)[C@@H]2NC(=O)N2CCC(C)(c3noc([C@@H]4C[C@@H]4F)n3)CC2)[C@@H](C)C1` [Example 110, N-{(1R,6S)-2,2-difluoro-6-[(2S)-2-methyl-4-(propan-2-yl)piperazin-1-yl]cyclohexyl}-4-{5-[(1S,2S)-2-fluorocyclopropyl]-1,2,4-oxadiazol-3-yl}-4-methylpiperidine-1-carboxamide], the “agonist activity (%)” value is 380%.

In the case of `CC(C)N1CCN([C@H]2CCCC(F)(F)[C@@H]2NC(=O)N2CCC(C)(c3noc([C@@H]4C[C@@H]4F)n3)CC2)[C@H](C)C1` [Example 111, N-{(1R,6S)-2,2-difluoro-6-[(2R)-2-methyl-4-(propan-2-yl)piperazin-1-yl]cyclohexyl}-4-{5-[(1S,2S)-2-fluorocyclopropyl]-1,2,4-oxadiazol-3-yl}-4-methylpiperidine-1-carboxamide], the “agonist activity (%)” value is given as 382%.

As for `CC(C)N(C)[C@@H]1CCN([C@H]2CCCC(F)(F)[C@@H]2NC(=O)N2CCC(C)(c3noc([C@@H]4C[C@@H]4F)n3)CC2)C1` [Example 112, N-[(1R,6S)-2,2-difluoro-6-{(3R)-3-[methyl(propan-2-yl)amino]pyrrolidin-1-yl}cyclohexyl]-4-{5-[(1S,2S)-2-fluorocyclopropyl]-1,2,4-oxadiazol-3-yl}-4-methylpiperidine-1-carboxamide], the “agonist activity (%)” value turned out to be 376%.

As to `CC(C)N1CC[C@@H](N(C)[C@H]2CCCC(F)(F)[C@@H]2NC(=O)N2CCC(C)(c3noc([C@@H]4C[C@@H]4F)n3)CC2)C1` [Example 113, N-[(1R,6S)-2,2-difluoro-6-{methyl[(3R)-1-(propan-2-yl)pyrrolidin-3-yl]amino}cyclohexyl]-4-{5-[(1S,2S)-2-fluorocyclopropyl]-1,2,4-oxadiazol-3-yl}-4-methylpiperidine-1-carboxamide], the “agonist activity (%)” value came to 374%.

For the compound `CC(C)N(C)C1CCN([C@H]2CCCC(F)(F)[C@@H]2NC(=O)N2CCC(C)(c3noc([C@@H]4C[C@@H]4F)n3)CC2)CC1` [Example 114, N-[(1R,6S)-2,2-difluoro-6-{4-[methyl(propan-2-yl)amino]piperidin-1-yl}cyclohexyl]-4-{5-[(1S,2S)-2-fluorocyclopropyl]-1,2,4-oxadiazol-3-yl}-4-methylpiperidine-1-carboxamide], the “agonist activity (%)” value came to 438%.
